Laboratory results taken from ChEMBL document CHEMBL3507680, “University of Dundee, Gates Library screen for HepG2 cell viability”.

Assay: Human HepG2 cell viability assay in 384 well format
Type: toxicity, cell-based
Parameters: dose 125 nL, time 70.5 hour; cytotoxicity at 70.5 h: concentration not given beside the values
Details: HepG2 cells, read-out: Inhibition

Row | Structure (SMILES) | cytotoxicity at 70.5 h [%]
1 | O=C(NCCc1c[nH]c2ccc(F)cc12)C1(n2cnnn2)CCCCC1 | -22.2
2 | O=C(Cn1ncc2c(c1=O)CCCC2)Nc1cccc2[nH]ccc12 | 6.81
3 | CNc1oc(-c2ccc(S(=O)(=O)N(C)C)o2)nc1C#N | 22.7
4 | O=C(CC1CCCC1)Nc1ccc(-n2cc(Br)cn2)nc1 | -2.32
5 | CC(=O)Nc1ccc(Oc2ccc3c(c2)OCO3)nc1 | -12.3
6 | CC(C)C(=O)Nc1ccc(Oc2ccc3c(c2)OCO3)nc1 | -10.1
7 | O=C(COc1coc(CN2CCOCC2)cc1=O)Nc1ccc(Cl)cc1 | -17.6
8 | COCCn1ccc2c(NC(=O)C(C)C)cccc21 | -1.52
9 | COc1cccc2c1ccn2CCNC(=O)C1CCC1 | -13.3
10 | Cc1ccnc(NC(=O)C2(n3cnnn3)CCCCC2)c1 | -23.1
11 | O=C(NCC(=O)N1CCc2ccccc2C1)c1cnccn1 | -6.74
12 | O=c1cc2c(nn1CN1CCC(c3ccccc3)CC1)CCC2 | -17.6
13 | CC(C)NC(=O)[C@H](C)NC(=O)N1CCN(c2ccc(Cl)cc2)CC1 | -15.6
14 | O=c1cc2c(nn1CN1CCSCC1)CCC2 | -19.6
15 | COc1ccc2nnc(CCCC(=O)NCc3ccccc3OC)n2n1 | -15.5
16 | COc1ccc2c(c1)c(C(=O)Nc1nnn[nH]1)cn2C | -13.5
17 | O=C(NCCc1ccccn1)C1(n2cnnn2)CCCCC1 | 14.5
18 | COc1ccc(-n2ncc3c2NC(=O)CSC3CC(C)C)cc1 (stereo not drawn) | -19.5
19 | Cc1cc(C(=O)N2C[C@@H]3CN(S(C)(=O)=O)CCO[C@@H]3C2)c(C)o1 | 19.5
20 | CN(C)C(=O)N[C@@H]1CN(S(C)(=O)=O)[C@@H]2CCCO[C@@H]21 | 47.9
21 | Cc1nc(C(=O)N2C[C@@H]3CN(S(C)(=O)=O)CCO[C@@H]3C2)cs1 | -1.34
22 | Cc1noc(C)c1CN1CC2(CCCCN2c2cncnc2)CC1=O (stereo not drawn) | -3.04

Row | Structure (SMILES) | cytotoxicity at 70.5 h [%]
23 | Cc1ccc(C(=O)N2C[C@@H]3CN(S(C)(=O)=O)CCO[C@@H]3C2)s1 | 0.775
24 | Cc1nc(-c2ccc(F)cc2)nc2c1CCN(C(=O)CN(C)C)CC2 | -1.65
25 | COc1ccc(CC(=O)N2CC[C@@H]3NC(=O)CC[C@@H]32)cc1 | 3.62
26 | COc1cccc(CC(=O)N2CC[C@H]3[C@@H]2CCC(=O)N3C)c1 | 4.41
27 | COc1cc(N2CCCn3cnc(COCCO)c3C2)ncn1 | 0.488
28 | c1cnc(N2CCO[C@H]3[C@H](OCCN4CCOCC4)CC[C@@H]32)nc1 | -2.53
29 | COc1cccc(CC(=O)N2CC[C@@H]3NC(=O)CC[C@@H]32)c1 | -0.893
30 | Cc1ccc2c(c1)C(NC(C)C)CC21CCNCC1 (stereo not drawn) | -1.86
31 | Cc1ccc2c(c1)C1(CCNCC1)CC2NC(C)C (stereo not drawn) | -2.54
32 | Cc1nc(N2CCCC2)nc2c1CCN(C(=O)CN(C)C)CC2 | -3.18
33 | CN(C)C(=O)N[C@@H]1CN(C2CCOCC2)[C@@H]2CCCO[C@@H]21 | -2.52
34 | O=C(NC1CCC1)[C@H]1C[C@@H]2[C@@H](C1)OCCN2CC1CC1 | 0.808
35 | O=C(c1ccoc1)N1CCC2(CCC(=O)N2Cc2ccncc2)CC1 | 5.56
36 | CN(C)C(=O)CO[C@@H]1CC[C@H]2[C@H]1OCCN2c1ncccn1 | 4.77
37 | Cc1cccc(CN2Cc3[nH]nc(COCC4CC4)c3C2)n1 | 3.89
38 | COc1cccc(CN2CCC3(CCN(c4ncc(C)cn4)CC3)C2)c1 | 1.49
39 | O=C(CO[C@@H]1CC[C@H]2[C@H]1OCCN2c1ncccn1)N1CCCC1 | -0.322
40 | Cc1cccc(CN2Cc3[nH]nc(COCc4nccs4)c3C2)n1 | -0.324
41 | Cc1ccc(C(=O)N2C[C@@H]3CCCO[C@@H]3[C@H](N3CCOCC3)C2)cn1 | 2.11
42 | COc1cccc(CN2CCC3(CC2)CCN(c2ncccn2)C3)c1 | 2.21
43 | COc1cc(N2CCCn3cnc(COC(C)C)c3C2)ncn1 | 13.3
